IC50 data for 30 molecules are collected here from ChEMBL document CHEMBL4680235, “Structure-based discovery of novel 4-(2-fluorophenoxy)quinoline derivatives as c-Met inhibitors using isocyanide-involved multicomponent reactions” (Eur J Med Chem, 2020).

One assay has as its system NCI-H460. The assay can be described thus: Antiproliferative activity against human NCI-H460 cells assessed as reduction in cell viability measured after 72 hrs by MTT assay. Conditions: NCI-H460, 72 h.
The next assay has as its system HT-29. The assay can be described thus: Antiproliferative activity against human HT-29 cells assessed as reduction in cell viability measured after 72 hrs by MTT assay. The conditions noted are these: HT-29, 72 h. In general terms: Tetrazolium assays rely on reduction of a dye to a coloured formazan, in cell work by metabolically active cells.
For the next assay, the system named is MDA-MB-231. The assay can be described thus: Antiproliferative activity against human MDA-MB-231 cells assessed as reduction in cell viability measured after 72 hrs by MTT assay. Conditions: MDA-MB-231, 72 h.
The test system of the next assay is MKN-45. Put plainly: Antiproliferative activity against human MKN-45 cells assessed as reduction in cell viability measured after 72 hrs by MTT assay. The conditions noted are these: MKN-45, 72 h.

Take `COc1cc2nccc(Oc3ccc(NC(=O)C(OC(=O)c4ccccc4)C4CCCCC4)cc3F)c2cc1OC` (stereo not given): the IC50 (as a rule, the point on the concentration scale where inhibition reaches its midpoint) with NCI-H460 was 10300 nM; in the assay on HT-29 it was 15600 nM; with MDA-MB-231 it was 18000 nM; in the assay on MKN-45 it was 20500 nM.

Take `COc1cc2nccc(Oc3ccc(NC(=O)C(OC(=O)c4ccc(C(C)(C)C)cc4)C(C)(C)C)cc3F)c2cc1OC` (stereo not given): the IC50 worked out at 2060 nM with NCI-H460, 2450 nM with HT-29, 4450 nM with MDA-MB-231 and 3950 nM in the assay on MKN-45.

For the molecule `COc1cc2nccc(Oc3ccc(NC(=O)C(OC(=O)c4ccc(Br)cc4)C(C)(C)C)cc3F)c2cc1OC` (stereo not given), the IC50 came to 480 nM with NCI-H460, 560 nM in the assay on HT-29, 900 nM in the assay with MDA-MB-231 and 750 nM with MKN-45.

For the molecule `COc1cc2nccc(Oc3ccc(NC(=O)C(N(C(=O)c4ccc(F)cc4)c4ccccc4)C(C)(C)C)cc3F)c2cc1OC` (stereo not given), the concentration for half-maximal inhibition (IC50) was determined as 7560 nM in the assay with NCI-H460, 9270 nM in the assay on HT-29, 14000 nM in the assay with MDA-MB-231 and 11500 nM with MKN-45.

As to `COc1cc2nccc(Oc3ccc(NC(=O)C(OC(=O)c4ccc(C)cc4)C(C)(C)C)cc3F)c2cc1OC` (stereo not given), the IC50 in the assay with NCI-H460 is 780 nM; in the assay with HT-29, 850 nM; in the assay on MDA-MB-231, 1420 nM; in the assay on MKN-45, 1080 nM.

As for `COc1cc2nccc(Oc3ccc(NC(=O)C(OC(=O)c4ccccc4F)C(C)(C)C)cc3F)c2cc1OC` (stereo not given), the half-inhibitory concentration (IC50) in the assay on NCI-H460 was 210 nM; with HT-29, 240 nM; with MDA-MB-231, 440 nM; in the assay on MKN-45 it was 380 nM.

In the case of `COc1ccc(N(C(=O)c2ccc(F)cc2)C(C(=O)Nc2ccc(Oc3ccnc4cc(OC)c(OC)cc34)c(F)c2)C(C)(C)C)cc1OC` (stereo not given), the IC50 worked out at 6420 nM with NCI-H460, 6210 nM in the assay on HT-29, 8870 nM with MDA-MB-231 and 7520 nM in the assay with MKN-45.

For `COc1cc2nccc(Oc3ccc(NC(=O)C(OC(=O)c4ccco4)C(C)(C)C)cc3F)c2cc1OC` (stereo not given), the IC50 in the assay with NCI-H460 was 2680 nM; in the assay on HT-29 it was 2960 nM; in the assay with MDA-MB-231 it was 3560 nM.

Turning to `COc1cc2nccc(Oc3ccc(NC(=O)C(N(C(=O)c4ccc(F)cc4)C4CCCCC4)C(C)(C)C)cc3F)c2cc1OC` (stereo not given), the IC50 in the assay with NCI-H460 was 4340 nM; with HT-29, 5350 nM; with MDA-MB-231, 8480 nM; in the assay on MKN-45, 6650 nM.

For the molecule `COc1cc2nccc(Oc3ccc(NC(=O)C(OC(=O)c4ccc5ccccc5c4)C(C)(C)C)cc3F)c2cc1OC` (stereo not given), the IC50 with NCI-H460 worked out at 3340 nM; with HT-29 it was 4380 nM; in the assay on MDA-MB-231, 6750 nM.

Take `COc1cc2nccc(Oc3ccc(NC(=O)C(OC(=O)C4CCCC4)C(C)(C)C)cc3F)c2cc1OC` (stereo not given): the IC50 is 11600 nM in the assay on NCI-H460, 9270 nM in the assay with HT-29, 14000 nM in the assay with MDA-MB-231 and 11500 nM with MKN-45.

As for `COc1cc2nccc(Oc3ccc(NC(=O)C(OC(=O)c4cccc(Cl)c4)C(C)(C)C)cc3F)c2cc1OC` (stereo not given), the IC50 with NCI-H460 was 310 nM; with HT-29 it was 390 nM; in the assay on MDA-MB-231, 860 nM; with MKN-45, 600 nM.

In the case of `COc1cc2nccc(Oc3ccc(NC(=O)C(C)OC(=O)c4ccc5ccccc5c4)cc3F)c2cc1OC` (stereo not given), the IC50 was 9430 nM in the assay on NCI-H460, 11600 nM in the assay on HT-29, 13300 nM in the assay on MDA-MB-231 and 15600 nM with MKN-45.

For the molecule `COc1cc2nccc(Oc3ccc(NC(=O)C(C)OC(=O)C4CCCC4)cc3F)c2cc1OC` (stereo not given), the IC50 with NCI-H460 amounted to 15200 nM; in the assay on HT-29, 24600 nM; in the assay with MKN-45, 28200 nM.

Turning to `COc1cc2nccc(Oc3ccc(NC(=O)C(OC(=O)c4cccc(F)c4)C(C)(C)C)cc3F)c2cc1OC` (stereo not given), the IC50 with NCI-H460 was 260 nM; in the assay on HT-29, 300 nM; with MDA-MB-231, 490 nM; with MKN-45, 540 nM.

Consider `CCCC(OC(=O)c1ccccc1)C(=O)Nc1ccc(Oc2ccnc3cc(OC)c(OC)cc23)c(F)c1` (stereo not given), for which the IC50 worked out at 890 nM in the assay with NCI-H460, 1240 nM in the assay on HT-29, 2480 nM in the assay on MDA-MB-231 and 1870 nM in the assay on MKN-45.

On to `COc1ccc(C(=O)OC(C(=O)Nc2ccc(Oc3ccnc4cc(OC)c(OC)cc34)c(F)c2)C(C)(C)C)cc1` (stereo not given), for which the IC50 came to 1250 nM with NCI-H460, 1540 nM in the assay on HT-29, 2580 nM in the assay on MDA-MB-231 and 1860 nM in the assay with MKN-45.

For `COc1cc2nccc(Oc3ccc(NC(=O)C(OC(=O)c4ccc(Cl)c(Cl)c4)C(C)(C)C)cc3F)c2cc1OC` (stereo not given), the IC50 in the assay on NCI-H460 is 780 nM; in the assay on HT-29, 900 nM; in the assay on MDA-MB-231, 1560 nM; in the assay on MKN-45, 1120 nM.

With `COc1cc2nccc(Oc3ccc(NC(=O)C(OC(=O)c4ccc(Cl)cc4)C(C)(C)C)cc3F)c2cc1OC` (stereo not given), the IC50 with NCI-H460 came to 200 nM; in the assay with HT-29 it was 240 nM; in the assay on MDA-MB-231 it was 480 nM; with MKN-45, 320 nM.

For the molecule `CCCCN(C(=O)c1ccc(F)cc1)C(C(=O)Nc1ccc(Oc2ccnc3cc(OC)c(OC)cc23)c(F)c1)C(C)(C)C` (stereo not given), the IC50 with NCI-H460 turned out to be 470 nM; with HT-29, 520 nM; in the assay with MDA-MB-231 it was 860 nM; with MKN-45, 680 nM.

For `COc1cc2nccc(Oc3ccc(NC(=O)C(NC(=O)c4ccc(F)cc4)C(C)(C)C)cc3F)c2cc1OC` (stereo not given), the IC50 in the assay on NCI-H460 was determined as 380 nM; in the assay with HT-29 it was 440 nM; with MDA-MB-231, 960 nM; in the assay with MKN-45, 650 nM.

For `COc1cc2nccc(Oc3ccc(NC(=O)C(C)OC(=O)c4ccccc4)cc3F)c2cc1OC` (stereo not given), the half-maximal inhibitory concentration (IC50) in the assay with NCI-H460 turned out to be 1290 nM; in the assay with HT-29, 1920 nM; in the assay on MDA-MB-231, 3210 nM; in the assay with MKN-45 it was 2390 nM.

`COc1cc2nccc(Oc3ccc(NC(=O)C(OC(=O)c4cccs4)C(C)(C)C)cc3F)c2cc1OC` (stereo not given): the IC50 stood at 960 nM with NCI-H460, 1260 nM with HT-29, 1890 nM in the assay with MDA-MB-231 and 1700 nM with MKN-45.

With `COc1cc2nccc(Oc3ccc(NC(=O)C(OC(=O)c4ccc(C(F)(F)F)cc4)C(C)(C)C)cc3F)c2cc1OC` (stereo not given), the IC50 amounted to 1840 nM with NCI-H460, 2160 nM in the assay on HT-29, 3520 nM with MDA-MB-231 and 2870 nM in the assay on MKN-45.

Regarding `COc1cc2nccc(Oc3ccc(NC(=O)C(N(C(=O)c4ccc(F)cc4)c4ccc(F)cc4)C(C)(C)C)cc3F)c2cc1OC` (stereo not given), the IC50 with NCI-H460 was found to be 8420 nM; with HT-29, 10200 nM; in the assay with MDA-MB-231, 14800 nM; in the assay with MKN-45, 12400 nM.

With `COc1cc2nccc(Oc3ccc(NC(=O)C(OC(=O)c4ccccc4)C(C)(C)C)cc3F)c2cc1OC` (stereo not given), the IC50 in the assay on NCI-H460 worked out at 400 nM; with HT-29, 450 nM; with MDA-MB-231 it was 650 nM; in the assay with MKN-45 it was 560 nM.

Regarding `COc1cc2nccc(Oc3ccc(NC(=O)C(N(C(=O)c4ccc(F)cc4)C(C)(C)C)C(C)(C)C)cc3F)c2cc1OC` (stereo not given), the IC50 worked out at 1300 nM in the assay on NCI-H460, 1450 nM in the assay with HT-29, 1700 nM in the assay with MDA-MB-231 and 1580 nM with MKN-45.

As to `COc1cc2nccc(Oc3ccc(NC(=O)C(OC(=O)c4cc(OC)c(OC)c(OC)c4)C(C)(C)C)cc3F)c2cc1OC` (stereo not given), the IC50 in the assay with NCI-H460 worked out at 2700 nM; in the assay on HT-29 it was 3030 nM; with MDA-MB-231, 4920 nM; with MKN-45 it was 3870 nM.

In the case of `COc1cc2nccc(Oc3ccc(NC(=O)C(OC(=O)c4ccccc4Cl)C(C)(C)C)cc3F)c2cc1OC` (stereo not given), the IC50 is 220 nM with NCI-H460, 290 nM with HT-29, 760 nM in the assay on MDA-MB-231 and 460 nM with MKN-45.

On to `COc1cc2nccc(Oc3ccc(NC(=O)C(OC(=O)c4ccccc4)c4ccccc4)cc3F)c2cc1OC` (stereo not given), for which the IC50 with NCI-H460 amounted to 22400 nM; in the assay on HT-29, 25600 nM.
